Test results as given in patent publication US20100190722A1, “SUBSTANCE P AND THYROTROPIN RELEASING HORMONE FOR THERAPEUTIC APPLICATIONS” (priority 2007, published 2010).
No end group written: not given here.

What was measured:
HIV-1IIIB = experiment: HIV-1 antiviral assay in CEM-SS cells (MTS readout); format: cell-based
[1] = test system: hepatitis B virus (HBV) ayw strain; experiment: HBV experimental assay system (secreted HBV DNA, TaqMan PCR); format: cell-based; details: 10 micrograms per ml; HepG2-2.2.15 cells; six days
A549 cells = experiment: Apoptosis prevention assay (C2 ceramide, Annexin-5); format: cell-based, human; details: 10 micrograms per ml, 30 min pretreatment
Description: Human A549 cells (carcinomic human alveolar basal epithelial cells) were utilized in the experiments employing the Annexin-5 apoptosis assay. […] A549 cells were pretreated for 30 min with test peptides—10 micrograms per ml—followed by the exposure to C2 ceramide.

TNF-a spleen cells = experiment: Th1/Th2 cytokine profiling assay, TNF-a; format: cell-based, Balb/c mice; details: 10 micrograms per ml; Ovalbumin restimulation; 72 hours
Excerpt: (§1) The Balb/c mice (originated in 1923, it is a popular strain and is used in many different research disciplines. Also classified as an inbred from the production of 20 or more successive brother-sister matings, the Balb/c mouse is albino and small in size) were immunized on Days 1, 15, and 29 with Ovalbumin (Ovalbumin is the main protein found in egg white, commonly used to stimulate an immunological reaction in test animals) in PBS (5 micrograms/injection). On day 50, spleens of the mice were harvested (3 weeks after last boost with Ovalbumin). […] Thereafter, additional Ovalbumin was added to the cells at 10 micrograms/ml for in vitro restimulation of the cells. 72 hours later, cell supernatants were harvested and assayed using the Becton Dickinson Mouse Th1/Th2 Cytokine CBA Kit.

IFNγ spleen cells = experiment: Th1/Th2 cytokine profiling assay, IFNγ; format: cell-based, Balb/c mice; details: 10 micrograms per ml; Ovalbumin restimulation; 72 hours
Excerpt: as §1

IL-2 spleen cells = experiment: Th1/Th2 cytokine profiling assay, IL-2; format: cell-based, Balb/c mice; details: 10 micrograms per ml; Ovalbumin restimulation; 72 hours
Excerpt: as §1

IL-4 spleen cells = experiment: Th1/Th2 cytokine profiling assay, IL-4; format: cell-based, Balb/c mice; details: 10 micrograms per ml; Ovalbumin restimulation; 72 hours
Excerpt: as §1

IL-5 spleen cells = experiment: Th1/Th2 cytokine profiling assay, IL-5; format: cell-based, Balb/c mice; details: 10 micrograms per ml; Ovalbumin restimulation; 72 hours
Excerpt: as §1

RAW 264.7 cells = experiment: Phagocytosis assay (Fluorescein-labeled Escherichia coli, flow cytometry); details: 10 micrograms per ml
HCMV strain AD169 = experiment: HCMV plaque formation assay in MRC-5 cells

Molecule | antiviral activity of positive control compounds (HIV-1) (HIV-1IIIB) | inhibition of HBV replication as compared to the virus control infection [1] | prevention (reduction) of ceramide-induced apoptosis on human lung cells (A549 cells) [%] | TNF-a spleen cells; TH1 response (% of control) (TNF-a spleen cells) | IFNγ spleen cells; TH1 response (% of control) (IFNγ spleen cells) | IL-2 spleen cells (% of control) (IL-2 spleen cells) | IL-4 spleen cells; TH2 response (% of control) (IL-4 spleen cells) | IL-5 spleen cells; TH2 response (% of control) (IL-5 spleen cells) | increase of the phagocytic activity of murine macrophages (RAW 264.7 cells) [%] | antiviral activity of positive control compound (HCMV) (HCMV strain AD169)
Cc1cn([C@H]2C[C@H](N=[N+]=[N-])[C@@H](CO)O2)c(=O)[nH]c1=O [AZT] | expected levels of antiviral activity | – | – | – | – | – | – | – | – | –
Arg-Pro-Lys-Pro-Gln-Gln-Phe-Phe-Gly-Leu-Met-NH2 (RPKPQQFFGLM-NH2) [Peptide 1] | – | 30.2% | 10.9 | 101.0 % of control | 136.4 % of control | 113.6 % of control | 106.2 % of control | 64.0 % of control | 28.6 | –
Nc1nc(O)c2ncn(COC(CO)CO)c2n1 [Ganciclovir] | – | – | – | – | – | – | – | – | – | expected levels of antiviral activity
Pyr-His-Pro-NH2 [Peptide 2] | – | no effect | 17.2 | 110.7 % of control | 102.0 % of control | 0.0 % of control | 106.2 % of control | 67.5 % of control | 31.4 | –
CC(C)(C)NC(=O)[C@@H]1CN(Cc2cccnc2)CCN1C[C@@H](O)C[C@@H](Cc1ccccc1)C(=O)N[C@H]1c2ccccc2C[C@H]1O [indinavir] | expected levels of antiviral activity | – | – | – | – | – | – | – | – | –
